Patent publication US9227971B2, “Pyrazolo[1,5-a]pyrimidine compounds as mTOR inhibitors” (Merck Sharp & Dohme Corp., priority 2010, dated 2016)
Read-outs that look alike come from different tables or passages of the source.

Experiments:
[1] = test system: phosphorylated AKT Ser473 (pAKT S473), mTORC2 activity, PC3 cells; assay: mTOR target engagement assay, immunofluorescent cell-based, pAKT S473 readout (mTORC2 activity)
Procedure, shortened: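 After blocking, cells were stained overnight at 4 °C with anti-pAKT S473 antibody, then a fluorescent secondary; inhibition was read as reduced fluorescence intensity.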

[2] = test system: phosphorylated 4E-BP1 Thr37/46 (p4E-BP1 Thr37/46), mTORC1 activity, PC3 cells; assay: mTOR target engagement assay, immunofluorescent cell-based, p4E-BP1 Thr37/46 readout (mTORC1 activity); details: read-out: p4E-BP1 Thr37/46 IC50
Procedure, shortened: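 PTEN-mutant PC3 prostate cells were treated with serially diluted compound in 5% FBS F12 medium (0.25% DMSO) for ninety minutes at 37° C, glyoxal-fixed, then immunostained overnight at 4° C for p4E-BP1 Thr37/46 with an Alexa Fluor 488 secondary. IC50 came from four-parameter fits of fluorescence, DMSO-only wells defining 100%.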

[3] = Homo sapiens, PC-3, Table 3-1, PC3 cells
[4] = Homo sapiens, PC-3, Table 6-1, PC3 cells
[5] = Homo sapiens, PC-3, PC3 cells, compound treatment ninety minutes at 37° C.

Compound | IC50 [1, 3] | IC50 [2, 3] | IC50 [1, 5] | IC50 [2, 5] | also measured
COc1ccc(-c2ccc(-c3cnn4c(N)c(S(C)(=O)=O)c([C@@H]5C[C@H]6CC[C@@H](C5)N6C(=O)c5nnc[nH]5)nc34)cn2)cc1C#N [Compound 3.92, 5-(5-(5-((1R,3s,5S)-8-(4H-1,2,4-triazole-3-carbonyl)-8-azabicyclo[3.2.1]octan-3-yl)-7-amino-6-(methylsulfonyl)pyrazolo[1,5-a]pyrimidin-3-yl)pyridin-2-yl)-2-methoxybenzonitrile] | 100 to 1000 nM | 100 to 1000 nM | – | – | –
CS(=O)(=O)c1c([C@@H]2C[C@H]3CC[C@@H](C2)N3C(=O)c2cc(CN)n[nH]2)nc2c(-c3ccc(-c4ccccc4)nc3)cnn2c1N [Compound 3.85, ((1R,3s,5S)-3-(7-amino-6-(methylsulfonyl)-3-(6-phenylpyridin-3-yl)pyrazolo[1,5-a]pyrimidin-5-yl)-8-azabicyclo[3.2.1]octan-8-yl)(3-(aminomethyl)-1H-pyrazol-5-yl)methanone] | 1 to 100 nM | 1 to 100 nM | – | – | –
CC(=O)c1c([C@@H]2C[C@H]3CC[C@@H](C2)N3C(=O)CO)nc2c(-c3ccc(C(O)C(F)(F)F)nc3)cnn2c1N (stereo partly drawn) [Compound 7.67, 1-((1R,3s,5S)-3-(6-acetyl-7-amino-3-(6-(2,2,2-trifluoro-1-hydroxyethyl)pyridin-3-yl)pyrazolo[1,5-a]pyrimidin-5-yl)-8-azabicyclo[3.2.1]octan-8-yl)-2-hydroxyethanone] | – | – | – | – | IC50 ([1]; Homo sapiens, PC-3, PC3 cells): 1000 to 10000 nM; IC50 ([2]; Homo sapiens, PC-3, PC3 cells): 100 to 1000 nM
1-((1R,3s,5S)-3-(6-acetyl-7-amino-3-(6-(cyclopropylamino)pyridin-3-yl)pyrazolo[1,5-a]pyrimidin-5-yl)-8-azabicyclo[3.2.1]octan-8-yl)-2-hydroxyethanone [Compound 8.50] | – | – | – | – | IC50 ([1]; PC3 cells): 100 to 1000 nM; IC50 ([2]; PC3 cells): 100 to 1000 nM
CC(C)S(=O)(=O)c1c([C@@H]2C[C@H]3CC[C@@H](C2)N3C(=O)c2nnc[nH]2)nc2c(-c3ccc(-c4ccccc4)nc3)cnn2c1N [Compound 3.163, ((1R,3s,5S)-3-(7-amino-6-(isopropylsulfonyl)-3-(6-phenylpyridin-3-yl)pyrazolo[1,5-a]pyrimidin-5-yl)-8-azabicyclo[3.2.1]octan-8-yl)(4H-1,2,4-triazol-3-yl)methanone] | 100 to 1000 nM | 100 to 1000 nM | – | – | –
CS(=O)(=O)c1c([C@@H]2C[C@H]3CC[C@@H](C2)N3C(=O)c2cnn[nH]2)nc2c(-c3ccc(C4(O)CCC4)nc3)cnn2c1N [Compound 7.30, ((1R,3s,5S)-3-(7-amino-3-(6-(1-hydroxycyclobutyl)pyridin-3-yl)-6-(methylsulfonyl)pyrazolo[1,5-a]pyrimidin-5-yl)-8-azabicyclo[3.2.1]octan-8-yl)(1H-1,2,3-triazol-5-yl)methanone] | – | – | – | – | IC50 ([1]; Table 7-2, PC3 cells): 100 to 1000 nM; IC50 ([2]; Table 7-2, PC3 cells): 100 to 1000 nM
CC(=O)c1c([C@@H]2C[C@H]3CC[C@@H](C2)N3S(C)(=O)=O)nc2c(-c3ccc(-c4ncc[nH]4)nc3)cnn2c1N [Compound 6.10, 1-(3-(6-(1H-imidazol-2-yl)pyridin-3-yl)-7-amino-5-((1R,3s,5S)-8-(methylsulfonyl)-8-azabicyclo[3.2.1]octan-3-yl)pyrazolo[1,5-a]pyrimidin-6-yl)ethanone] | – | – | – | – | IC50 [1, 4]: 1 to 100 nM; IC50 [2, 4]: 1 to 100 nM
CC(=O)c1c([C@@H]2C[C@H]3CC[C@@H](C2)N3C(N)=O)nc2c(-c3ccc(-c4ccccc4F)nc3)cnn2c1N [Compound 1.1.174, (1R,3s,5S)-3-(6-acetyl-7-amino-3-(6-(2-fluorophenyl)pyridin-3-yl)pyrazolo[1,5-a]pyrimidin-5-yl)-8-azabicyclo[3.2.1]octane-8-carboxamide] | – | – | 1 to 100 nM | 1 to 100 nM | –
CNC(=O)Nc1ccc(-c2cnn3c(N)cc([C@@H]4C[C@H]5CC[C@@H](C4)N5C(=O)CO)nc23)cc1 [Compound 8.82, 1-(4-(7-amino-5-((1R,3s,5S)-8-(2-hydroxyacetyl)-8-azabicyclo[3.2.1]octan-3-yl)pyrazolo[1,5-a]pyrimidin-3-yl)phenyl)-3-methylurea] | – | – | – | – | IC50 ([1]; Homo sapiens, PC-3, PC3 cells): > 10000 nM; IC50 ([2]; Homo sapiens, PC-3, PC3 cells): > 10000 nM
Cn1cc(-c2cnn3c(N)c(S(C)(=O)=O)c([C@@H]4C[C@H]5CC[C@@H](C4)N5C(=O)c4nnc[nH]4)nc23)cn1 [Compound 3.111, ((1R,3s,5S)-3-(7-amino-3-(1-methyl-1H-pyrazol-4-yl)-6-(methylsulfonyl)pyrazolo[1,5-a]pyrimidin-5-yl)-8-azabicyclo[3.2.1]octan-8-yl)(4H-1,2,4-triazol-3-yl)methanone] | 1000 to 10000 nM | 1000 to 10000 nM | – | – | –
Nc1c(C2CC2)c([C@@H]2C[C@H]3CC[C@@H](C2)N3C(=O)CO)nc2c(-c3ccc(-c4cccc(F)c4)nc3)cnn12 [Compound 4.22, 1-((1R,3s,5S)-3-(7-amino-6-cyclopropyl-3-(6-(3-fluorophenyl)pyridin-3-yl)pyrazolo[1,5-a]pyrimidin-5-yl)-8-azabicyclo[3.2.1]octan-8-yl)-2-hydroxyethanone] | – | – | 100 to 1000 nM | 100 to 1000 nM | –
CC(=O)c1c(C2CC3CCC(C2)N3C(=O)c2c[nH]nn2)nc2c(-c3ccc(-c4ccccc4)nc3)cnn2c1N [Compound 1.1.21, 1-(5-((1R,3s,5S)-8-(1H-1,2,3-triazole-5-carbonyl)-8-azabicyclo[3.2.1]octan-3-yl)-7-amino-3-(6-phenylpyridin-3-yl)pyrazolo[1,5-a]pyrimidin-6-yl)ethanone] | – | – | 1 to 100 nM | 1 to 100 nM | –
CC(=O)c1c([C@@H]2C[C@H]3CC[C@@H](C2)N3C(=O)c2nnc[nH]2)nc2c(-c3cnc(-c4cc[nH]n4)c(F)c3)cnn2c1N [Compound 1.1.110, 1-(5-((1R,3s,5S)-8-(4H-1,2,4-triazole-3-carbonyl)-8-azabicyclo[3.2.1]octan-3-yl)-7-amino-3-(5-fluoro-6-(1H-pyrazol-3-yl)pyridin-3-yl)pyrazolo[1,5-a]pyrimidin-6-yl)ethanone] | – | – | 100 to 1000 nM | 100 to 1000 nM | –
CS(=O)(=O)c1c([C@@H]2C[C@H]3CC[C@@H](C2)N3C(=O)c2nnc[nH]2)nc2c(-c3ccc(-c4ccccc4F)nc3)cnn2c1N [Compound 3.104, ((1R,3s,5S)-3-(7-amino-3-(6-(2-fluorophenyl)pyridin-3-yl)-6-(methylsulfonyl)pyrazolo[1,5-a]pyrimidin-5-yl)-8-azabicyclo[3.2.1]octan-8-yl)(4H-1,2,4-triazol-3-yl)methanone] | 1 to 100 nM | 1 to 100 nM | – | – | –
CCOc1ccc(-c2ccc(-c3cnn4c(N)c(C5CC5)c([C@@H]5C[C@H]6CC[C@@H](C5)N6C(=O)c5nnc[nH]5)nc34)cn2)cc1 [Compound 4.13, ((1R,3s,5S)-3-(7-amino-6-cyclopropyl-3-(6-(4-ethoxyphenyl)pyridin-3-yl)pyrazolo[1,5-a]pyrimidin-5-yl)-8-azabicyclo[3.2.1]octan-8-yl)(4H-1,2,4-triazol-3-yl)methanone] | – | – | 100 to 1000 nM | 100 to 1000 nM | –
CC(=O)c1c([C@@H]2C[C@H]3CC[C@@H](C2)N3C(=O)c2nnc[nH]2)nc2c(-c3ccc(NC4CC4)nc3)cnn2c1N [Compound 8.47, 1-(5-((1R,3s,5S)-8-(4H-1,2,4-triazole-3-carbonyl)-8-azabicyclo[3.2.1]octan-3-yl)-7-amino-3-(6-(cyclopropylamino)pyridin-3-yl)pyrazolo[1,5-a]pyrimidin-6-yl)ethanone] | – | – | – | – | IC50 ([1]; PC3 cells): 1 to 100 nM; IC50 ([2]; PC3 cells): 1 to 100 nM
